Test results published in patent US7615542B2, “Dioxolane thymine and combinations for use against 3TC/AZT resistant strains of HIV” (priority 2002, dated 2009).

Experiments:
HIV-1 isolate 5705-72 = assay: Anti-HIV efficacy in PBMC, isolate 5705-72; format: cell-based; conditions: for IC50: Human immunodeficiency virus 1, PBMC, isolate 5705-72 (post-treatment), read-out: Drug (IC50)
Experimental: (§1) The following Tables 2 and 3, set forth below, describe the HIV resistant strains genotypically (Table 2) and phenotypically (Table 3) which were used in the experiments to test activity.
(§2) Each of the three test compounds were tested for efficacy against the various strains of HIV-1. Anti-HIV efficacy was evaluated in PBMC, reverse transcriptase activity was tested in a microtiter plate-based reverse transciptase assay (Buckeit, et al., AIDS Research and Human Retroviruses, 7:295-302, 1991), MTS staining was used for determining cell viability.
(§3) The compounds were also evaluated in a parallel assay for cytotoxicity in uninfected PBM cells.

HIV-1 isolate LAI = assay: Anti-HIV efficacy in PBMC, isolate LAI; format: cell-based; conditions: for IC50: Human immunodeficiency virus 1, PBMC, read-out: Drug (IC50)
Experimental: as §1
as §2, with “viability. […] Table 5 presents a resistance phenotype comparison for compounds of the present invention versus the compounds 3TC and AZT.” for “viability.”
as §3

HIV-1 isolate LAI M184V = assay: Anti-HIV efficacy in PBMC, isolate LAI M184V; format: cell-based; conditions: for Phenotype for LAI M184V: resistance phenotype comparison, Table 5
Experimental: as §1, §2, §3

HIV-1 isolate H112-2 = assay: Anti-HIV efficacy in PBMC, isolate H112-2; format: cell-based; conditions: for IC50: Human immunodeficiency virus 1, PBMC, isolate H112-2 (pre-treatment), read-out: Drug (IC50)
Experimental: as §1
as §2, with “viability. […] Table 5 presents a resistance phenotype comparison for compounds of the present invention versus the compounds 3TC and AZT.” for “viability.”
as §3

HIV-1 isolate G910-6 = assay: Anti-HIV efficacy in PBMC, isolate G910-6; format: cell-based; conditions: for IC50: Human immunodeficiency virus 1, PBMC, isolate G910-6 (post-treatment), read-out: Drug (IC50); for Phenotype for G910-6: resistance phenotype comparison, Table 5
Experimental: as §1, §2, §3

HIV-1 isolate 488-101 = assay: microbe, parasite or virus in culture; format: cell-based; conditions: for IC50: Human immunodeficiency virus 1, PBMC, isolate 488-101 (post-treatment), read-out: Drug (IC50); for Phenotype for 488-101: resistance phenotype comparison, Table 5
Experimental: as §1, §2, §3

HIV-1 isolate 5705-0 = assay: Anti-HIV efficacy in PBMC, isolate 5705-0; format: cell-based; conditions: for IC50: Human immunodeficiency virus 1, PBMC, isolate 5705-0 (pre-treatment), read-out: Drug (IC50)
Experimental: as §1
as §2, with “viability. […] Table 5 presents a resistance phenotype comparison for compounds of the present invention versus the compounds 3TC and AZT.” for “viability.”
as §3

HIV-1 isolate 488-0 = assay: Anti-HIV efficacy in PBMC, isolate 488-0; format: cell-based; conditions: for IC50: Human immunodeficiency virus 1, PBMC, isolate 488-0 (pre-treatment), read-out: Drug (IC50)
Experimental: as §1
as §2, with “viability. […] Table 5 presents a resistance phenotype comparison for compounds of the present invention versus the compounds 3TC and AZT.” for “viability.”
as §3

[1] = tested on: panel of HIV-1 3TC/AZT drug sensitive/resistant matched pair virus isolates; assay: Standardized PBMC cell-based anti-HIV assay, matched pair panel; conditions: AZT and/or 3TC resistant isolates
Experimental: as §2, §3

[2] = tested on: mutations 65R, 74V, 184V, and 115F in the RT gene; conditions: mutants harboring 2 or 3 of these mutations; cited from earlier work

SMILES	IC50 (HIV-1 isolate 5705-72) [nM]	IC50 (HIV-1 isolate LAI) [nM]	IC50 (HIV-1 isolate H112-2) [nM]	IC50 (HIV-1 isolate G910-6) [nM]	Phenotype for G910-6 (HIV-1 isolate G910-6)	IC50 (HIV-1 isolate 488-101) [nM]	Phenotype for 488-101 (HIV-1 isolate 488-101)	IC50 (HIV-1 isolate 5705-0) [nM]	IC50 (HIV-1 isolate 488-0) [nM]	Phenotype for LAI M184V (HIV-1 isolate LAI M184V)	Cross-resistance / resistance profile [1]	also measured
Nc1ccn([C@@H]2CS[C@H](CO)O2)c(=O)n1 [3TC, Lamivudine]	> 50000	10	170	320	Sensitive (<5 fold resistance, Sensitive)	40600	Resistant (>5 fold resistance, Resistant)	4 to 9	30 to 47	–	–	IC50 (HIV-1 isolate LAI M184V; Human immunodeficiency virus 1, PBMC, isolate LAI-M184V, read-out: Drug (IC50)): > 50000 nM
Cc1cn([C@H]2C[C@H](N=[N+]=[N-])[C@@H](CO)O2)c(=O)[nH]c1=O [AZT, 3′-Azido-3′-deoxythymidine]	30	20	10	620	Resistant (>5 fold resistance, Resistant)	80	–	3 to 8	0.3 to 0.6	Sensitive (<5 fold resistance, Sensitive)	–	Phenotype (HIV-1 isolate LAI; Table 3): Sensitive; Phenotype (HIV-1 isolate LAI M184V; isolate LAI-M184V, Table 3): Sensitive; Phenotype (HIV-1 isolate H112-2; isolate H112-2, Table 3): Sensitive; Phenotype (HIV-1 isolate G910-6; isolate G910-6, Table 3): Resistant; Phenotype (HIV-1 isolate 488-101; isolate 488-101, Table 3): Resistant; Phenotype (HIV-1 isolate 5705-0; isolate 5705-0, Table 3): Sensitive; Phenotype (HIV-1 isolate 488-0; isolate 488-0, Table 3): Sensitive
Nc1nc(N)c2ncn(C3COC(CO)O3)c2n1 [DAPD, beta-D-9-(5-hydroxymethyl-dioxolanyl-2-yl)-2,4-diamino-purine]	–	–	–	–	Sensitive (<5 fold resistance, Sensitive)	–	Sensitive (<5 fold resistance, Sensitive)	–	–	Sensitive (<5 fold resistance, Sensitive)	resistance profile similar to AZT	Resistance phenotype (HIV-1 isolate 5705-72; resistance phenotype comparison, Table 5): Resistant (>5 fold resistance, Resistant)
Nc1nc2c(ncn2[C@H]2CO[C@@H](CO)O2)c(=O)[nH]1 [DXG, beta-D-9-(5-hydroxymethyl-dioxolanyl-2-yl)guanine]	–	–	–	–	Sensitive (<5 fold resistance, Sensitive)	–	Sensitive (<5 fold resistance, Sensitive)	–	–	Resistant (>5 fold resistance, Resistant)	resistance profile similar to that of 3TC	–
Nc1nc(NC2CC2)c2ncn([C@H]3C=C[C@@H](CO)C3)c2n1 [abacavir, Abacavir]	–	–	–	–	–	–	–	–	–	–	–	resistance to the drug [2]: approximately 10 fold
